Results reported in EP2177218A1, “Regenerative therapy” (Medizinische Universität Wien, priority 2008, dated 2010).
Entries after “also recorded” stand apart in the source; their conditions may differ.

What was measured:
[1] = system: OPCs; assay: OPC differentiation on myelin protein extract (MPE) or myelin substrate, O4 immunocytochemistry, pharmacological agents; type: cell-based, Sprague-Dawley rat; details: for OPC differentiation / O4 expression in the presence of myelin inhibitors (result in words): differentiation medium; for max. mean increase of OPC differentiation: 48 hours incubation in differentiation medium, Fig. 4; for mean increase of OPC differentiation: OPCs on myelin (MPE)
Experimental: Primary cultures of oligodendrocyte precursor cells were isolated from PO-P2 neonatal Sprague-Dawley rat forebrains following a Standard protocol (McCarthy et al., J Cell Biol 85 (1980): 890-902) that were adapted for the present purpose (Syed et al. 2008, supra). In brief, hemispheres were stripped free of meninges, after a digestion step the cells were plated into cell culture flasks and mixed glia cultures were grown for approx. 10 days in DMEM medium supplemented with 10% PCS at 37°C and 7,5% CO2. To remove the loosely attached microglia the flasks were shaken for 1 hour at 260rpm on an orbital shaker before being shaken at 260rpm overnight to dislodge the loosely attached oligodendrocyte precursors. OPCs were further purified from contaminating microglia by a differential adhesion step. Subsequently OPCs were plated onto polylysine (PLL)-coated or Substrate coated dishes. To maintain cells at an early precursor stage PDGF-AA (Pepro Tech) and FGF (Pepro Tech) were added (10ng/ml) to SATOs medium. To induce differentiation cells were incubated in SATOs medium supplemented with 0.5% FCS. The purity of each culture was monitored following OPC purification by immunocytochemistry and only cultures with >94% purity were used. In the cultures minor contaminations of microglia that can be detected by isolectin staining and which amount to 4-5% of the cells, as well as by astrocytes (detectable by GFAP) and fibroblasts with distinct morphology, which account for about 1-2% of the cells are present.
To prepare myelin protein extract (MPE) the pellets were re-suspended in 1% N-octyl β-D-glucopyranoside, 0.2M Sodiumphosphate pH 6.8, 0.1 M Na2SO4 and 1mM EDTA and incubated at 23°C for 2 hours. Following an ultracentrifugation step (100,000 x g, 18°C, 30 min) the supernatants were collected and stored at -20°C until further usage.
The pooled OPCs harvested as outlined above were seeded at the same density of 20000 cells per well into polylysine (PLL)-coated 8-well chamber slides. Cells were differentiated for 48 hours and subsequently fixed with 4% paraformaldehyde in PBS, permeabilised and blocked with 0.3% Triton X-100 and 10% NGS. To assess the differentiation state of OPCs the cells were incubated with 04 antibody (1:100; Chemicon) for 1 hour in the presence of 0.1% Triton X-100 and 2% NGS, washed, and incubated for another 1 hour with the appropriate fluorescent secondary antibody (Cy3-conjugated antibody 1:100; Jackson Immuno Research) and the nuclei were stained using DAPI (Robinson et al., Dev Biol 216 (1999): 359-368; Syed et al. 2008, supra). It is important to note that permeabilisation of cells results in a punctate representation of the extracellular antigen 04 (Reynolds et al., Curr Opin Biotechnol 4 (1993): 734-738; Weiss et al., J Neurosci 16 (1996): 7599-7609; Syed et al. 2008, supra). Under an Olympus X51 fluorescent microscope using a triple-filter the percentage of O4-positive cells in relation to >100 DAPI-stained nuclei in randomly selected eye fields for each experimental condition were determined. To establish the purity of the OPC cultures immunocytochemistry for A2B5 (1:100; Chemicon) was performed according to the same principles and the percentage of A2B5+ cells to >100 DAPI-stained nuclei in randomly selected eye fields was determined. Only cell cultures with >94% A2B5-pos. cells were used for the present study. To assess the morphological phenotype of OPCs, A2B5+-cells were categorised according to the following criteria: stage 1: mono/bipolar; stage II: multipolar, primary branched; stage III: multipolar, secondary branched; stage IV: secondary branched cells with membranous processes.
To examine whether ROCK-II and PKC Signal transduction is implicated in the myelin mediated differentiation block, pharmacological inhibitors were added to the culture medium immediately after cell seeding. […]

[2] = system: OPCs; assay: TUNEL assay (apoptosis); type: cell-based, Sprague-Dawley rat; details: treated OPCs on MPE vs OPCs on PLL control, Fig. 7
Experimental: Fragmented DNA was detected by incorporation of biotinylated nucleotides at the 3'-OH DNA ends using Terminal Deoxynucleotidyl Transferase recombinant (rTdT) enzyme according to the manufacturer's instruction (Promega). Stained cells were visualized by light microscopy and the percentage of apoptotic nuclei was determined.

[3] = system: CREB; assay: CREB phosphorylation in OPCs (immunoprecipitation, Western blot for phospho-CREB); type: cell-based, Sprague-Dawley rat; details: in the presence of MAI, Fig. 14
[4] = system: demyelinating lesions; assay: Remyelination in vivo after ethidium bromide lesions, blind ranking of semithin resin sections; set-up: species or system Sprague Dawley rats; details: 0.5 mg/kg/d s.c. osmotic pumps, 14 days post lesion induction, preliminary
Experimental: The in vitro finding that rolipram is able to promote OPC differentiation in the presence of MAI was further developed to confirm remyelination in vivo. For this purpose demyelinating lesions were induced by topic injection of ethidium bromide into white matter tracts of young adult Sprague Dawley rats, and rolipram was applied subcutaneously by continuous osmotic pumps. 0,5mg/KG/d of rolipram was used in the first set of experiments that assessed the rate of remyelination. […] This is the first experiment that succeeded in enhancing the efficiency of remyelination in this model (Fig. 16).

[5] = system: EB lesions; assay: In situ hybridisation for cell markers in EB lesions; type: in vivo, Sprague-Dawley rats; details: 0,5mg/KG/d s.c.; for number of active OPCs (Nkx2.2): day 7, vs PBS vehicle; for macrophage marker MRSB (immune response): day 7 and day 14, vs PBS vehicle; for number of PDGFR-α positive OPCs in lesions / number of PLP positive cells (mature oligodendrocytes): day 14, vs PBS vehicle
Experimental: To validate the finding that administration of rolipram promotes CNS remyelination, the experiments were repeated as follows. EB lesions were induced in Sprague-Dawley rats, and rats were treated either with rolipram (0,5mg/KG/d) or PBS vehicle administered via s.c. osmotic pumps implanted 3 days post lesion induction. Animals were sacrificed at day 7 and day 14 post lesion induction and the tissue processed for in situ hybridization. The lesion area was visualized and measured on digitized solochrome cyanine stained sections and the number of cells within the lesion area as detected by ISH was determined.
PDGFR-α, a general marker for OPCs, was used to determine the presence of OPCs in the lesions.
Nkx2.2 can be used to detect activated OPCs within remyelinating lesions.
To detect mature oligodendrocytes, in situ hybridization for PLP was conducted. The extent of remyelination in control animals at 14 days is minimal. As to be expected in control animals the number of PLP positive cells remained unchanged at day 7 and day 14.
Finally, ISH for MRSB, a marker for macrophages, was used to determine whether rolipram treatment affects the immune response.

NCCCCN [putrescine]
OPC differentiation / O4 expression in the presence of myelin inhibitors (result in words) ([1]; OPCs on MPE): not the case
OPC differentiation / O4 expression in the presence of myelin inhibitors (result in words) ([1]; OPCs on MPE, listed as Putrescine): does not stimulate OPC differentiation

O=S(=O)(c1cccc2cnccc12)N1CCCNCC1 [HA-1077, 1-(5-lsoquinolinesulfonyl)-1H-hexahydro-1,4-diazepine 2 HCI]
mean increase in the number of differentiating OPCs ([1]; OPCs on MPE, 5µM, 48 hours in differentiation medium, n=4): 174%
increase of differentiating cells ([1]; OPCs on MPE, 48h culture in differentiation medium, Fig. 3b): more than 160%
OPC differentiation / O4 expression in the presence of myelin inhibitors (result in words) ([1]; OPCs on MPE): largely restored
apoptosis, TUNEL positive cells [2]: no significant differences

[H]/N=C(/N)SCCCn1cc(C2=C(c3cn(C)c4ccccc34)C(=O)NC2=O)c2ccccc21 [BIM, Bisindolylmaleimide IX]
max. mean increase of OPC differentiation ([1]; OPCs on MPE): 169%
mean increase of OPC differentiation ([1]; 6.25nM, n=4): 169%

12-(2-cyanoethyl)-6,7,12,13-tetrahydro-13-methyl-5-oxo-5H-indolo[2,3-a]pyrrollo[3,4-c]carbazole [Gö6976]
max. mean increase of OPC differentiation ([1]; OPCs on MPE): 269%
mean increase of OPC differentiation ([1]; 50nM, n=3): 267%
apoptosis, TUNEL positive cells [2]: no differences

CCCC(=O)Nc1ncnc2c1ncn2[C@@H]1O[C@@H]2COP(=O)([O-])O[C@H]2[C@H]1OC(=O)CCC.[Na+] [db-cAMP]
OPC differentiation / O4 expression in the presence of myelin inhibitors (result in words) ([1]; OPCs on MPE): partially overcome

COc1ccc(C2CNC(=O)C2)cc1OC1CCCC1 (centres unmarked) [rolipram]
differentiation capability of OPCs plated on MPE ([1]; 0.5µM in the medium): completely restore
OPC differentiation / O4 expression in the presence of myelin inhibitors (result in words) ([1]; OPCs on MPE): able to induce OPC differentiation; also recorded: able to restore OPC differentiation
CREB phosphorylation / activation in OPCs [3]: restores CREB activation
CREB phosphorylation / activation in OPCs ([3]; listed as Rolipram): inducing CREB phosphorylation
extent of remyelination, rank assessment [4]: able to promote remyelination in-vivo; also recorded: potently enhanced
number of active OPCs (Nkx2.2) [5]: effectively increased
number of active OPCs (Nkx2.2) ([5]; listed as Rolipram): increase
macrophage marker MRSB (immune response) [5]: no differences detected
macrophage marker MRSB (immune response) ([5]; listed as Rolipram): did not affect the immune response
number of PDGFR-α positive OPCs in lesions [5]: remained elevated
number of PLP positive cells (mature oligodendrocytes) [5]: significant increase
number of PDGFR-α positive OPCs in lesions ([5]; listed as Rolipram): maintained levels
number of PLP positive cells (mature oligodendrocytes) ([5]; listed as Rolipram): strong increase
number of Nkx2.2 positive cells ([5]; later stages (day 14), vs PBS vehicle): reached levels of control animals
